Test results as given in patent US6696578B2, “Difuropyrone derivatives” (Mount Sinai Hospital, priority 1999, dated 2004).

How the values were obtained:
[1] = Rehydrolysis of purified CM-1 with 6N HCl, UV absorption; type: physicochemical; settings: purified CM-1, 6N HCl, 110° C., 48 hrs
Experimental: An aliquot of purified CM-1 was lyophilized. The lyophilized CM-1 was resuspended in 7 ml of 50% HPLC grade methanol. The UV absorption of CM-1 was measured at 306 nm using a Shimatzu Spectrophotometer. The methanol was evaporated and CM-1 was rehydrolysed for 48 hrs in 6N HCl at 110° C. CM-1 was then lyophilized and resuspended in 7 ml of 50% HPLC grade methanol. The UV absorption of CM-1 was measured.

[2] = Rehydrolysis of purified CM-1 calibrator with 6N HCl for different time points; type: physicochemical; settings: 110° C.
Experimental: 100 μl of CM-1 calibrator was lyophilized, resuspended in 3.0 ml of 50% methanol and UV absorbance was measured. Five aliquots of 500 μl each were rehydrolyzed with 1000 μl 6N HCl at 110° C. for 3, 6, 12, 24 and 48 hrs. The rehydrolyzed CM-1 was lyophilized and resuspended in 500 μl of 50% methanol and UV absorbance was measured. Methanol was then evaporated and the samples were resuspended in 500 μl of the mobile phase and injected into the HPLC analytical column. The results of rehydrolysis of CM-1 were compared to the unhydrolyzed CM-1 calibrator.

[3] = Solubility of CM-1 in various solvents; type: physicochemical
[4] = Storage of CM-1 calibrator at room temperature or in freezer, UV absorbance; type: physicochemical; settings: calibrator in 50% methanol, eight months; for UV absorbance at 306 nm after storage: reference calibrator 0.69 AU
Experimental: The UV absorbance of CM-1 calibrator (30 ug/ml of 50% methanol) was measured. An aliquot of CM-1 calibrator was kept on the bench top for […], and another aliquot was kept in a storage box in a −70° C. freezer for an equal length of time. The UV absorbance of CM-1 calibrator aliquot was measured after eight months of respective storage procedure.

[5] = test system: SM and MD cartilage cultures (calf metaphalangeal joint chondrocytes); assay: Bovine cartilage cultures treated with interleukin-1β; type: cell-based; settings: 10 ng/ml for 7 days prior to harvesting
Experimental: Articular cartilage was excised separately from the superficial-middle (SM) or middle-deep (MD) layers of calf metaphalangeal joint using a sterile technique as described by Boyle et al. The cartilage slices were placed in a petri dish containing Ham's F12 and 1% antibiotics in HAT. Chondrocytes were isolated from the SM and MD extracellular matrix by sequential enzymatic digestion using proteinase (0.5%, 1 hour, 37° C.), washed three times with Ham's F12 medium and finally digested with collagenase A (0.1%, overnight, 37° C.). Teflon filter inserts (Millicell CMR, Millipore Corp., Bedford, Mass., USA) were placed into the wells of the 24 well culture dish, coated with type II collagen (0.5 mg/ml of 0.1N acetic acid), dried overnight and UV sterilized for 30 mins. The filter inserts were washed thoroughly with Ham's F12 before plating the cells. The isolated SM and MD chondrocytes were washed extensively and resuspended in Ham's F12 with 5% fetal bovine serum (FBS) and plated on the teflon inserts at a density of 3.0×10^6/cm^2. The cells were supplemented with the medium containing 20% FBS and 100 μg/ml ascorbic acid (added fresh at all times) from day 7 onwards every alternate working day. Some cartilage filter cultures were treated with 10 ng/ml interleukin-1β (Il-1β, human recombinant, Sigma) for 7 days (three changes of the Ham's F12 with 20% FBS and Il-1β) prior to harvesting. The chondrocytes were grown at 37° C., 100% humidity and 5% CO2. The chondrocyte cultures were harvested at fixed time points i.e. day 21, 35, and 56 and stored at −20° C. till the analysis day.
The untreated (controls) and Il-1β-treated SM and MD cartilage cultures were analyzed for cartilage thickness and collagen, proteoglycan, pyridinoline, deoxypyridinoline, and CM-1 content as described herein.

Row | decrease of UV absorption at 276 nm after rehydrolysis [1] [%] | decrease of UV absorption at 306 nm after rehydrolysis [1] [%] | UV absorption at 276 nm after rehydrolysis ([1]; before treatment 1.00 (278 nm)) [AU] | UV absorption at 306 nm after rehydrolysis ([1]; before treatment 1.884) [AU] | CM-1 yield after rehydrolysis (unhydrolyzed calibrator = 100%) ([2]; 3 hrs (maintained up to 12 hrs)) [%] | CM-1 yield after rehydrolysis (unhydrolyzed calibrator = 100%) ([2]; 24 hrs) [%] | CM-1 yield after rehydrolysis (unhydrolyzed calibrator = 100%) ([2]; 48 hrs) [%] | stability when rehydrolyzed with 6N HCl ([2]; prolonged period) | solubility ([3]; chloroform) | solubility ([3]; hexane) | solubility ([3]; methanol) | solubility ([3]; water) | decrease of UV absorbance at 306 nm after storage ([4]; room temperature) [%] | UV absorbance at 306 nm after storage ([4]; room temperature) [AU] | UV absorbance at 306 nm after storage ([4]; −70° C. freezer) [AU] | Substance | glycosaminoglycan (GAG) content ([5]; SM and DM groups) | collagen content ([5]; SM and DM groups, in particular day 56) | cartilage thickness versus untreated controls ([5]; SM and MD groups) | Pyd and Dpyd content ([5]; day 35 and more so day 56)
1 | 51 | 75 | 0.4865 | 0.469 | 64 | 19 | 4.5 | not stable | insoluble | insoluble | highly soluble | highly soluble | 75 | 0.1718 | 0.73 | 2,6-dimethyl-difuro-8-pyrone [CM-1] | – | – | – | –
2 | – | – | – | – | – | – | – | – | – | – | – | – | – | – | – | Il-1β: interleukin-1β, human recombinant, Sigma; used to treat cartilage filter cultures | decreased | decreased | thinner | decrease
